Consider two compounds from patent publication US5776769A, “Cell-type specific methods and devices for the low temperature preservation of the cells of an animal species” (Methodist Hospital of Indiana, priority 1995, dated 1998).

The subject of one data set is human spermatozoa. Particulars: cited from earlier work.
Data set [1] concerns human sperm. Briefly: Sperm motility (CASA) after glycerol addition and removal procedures. It is filed as cell-based. The following applies: for sperm motility loss: final 1M glycerol, 22° C. How it is done: Sperm motility was measured by computer assisted semen analysis (CASA) using CELLSOFT™, version 3.2/C. CASA was performed before, during, and after the anisosmotic exposures of the sperm samples. All experiments were conducted at 22° C.
TL-HEPES medium with 2M glycerol was either one-step or stepwise added to an equal volume of the isotonic sperm suspension to achieve a final 1M glycerol concentration at 22° C. Glycerol in the sperm was removed by dilution either by a one-step or stepwise addition of the TL-HEPES medium with or without an osmotic buffer (sucrose) placed into the cell suspension. The detailed procedures for the glycerol addition and removal are described in Tables 2-5. Sperm motility before, during, and after the different glycerol addition and removal procedures was measured by CASA. The membrane integrity of the sperm was determined by the dual staining technique and flow cytometry.
The time interval between two steps was approximately 1-2 minutes. The volume of solution added in each step was calculated using Equations 5 or 6.
The final 90 μl of sperm suspension were further diluted by adding 180 μl of TALP solution for the CASA analysis. The time interval between two steps is approximately 1-2 minutes. The volume of diluent added in each step was calculated using Equations 7 or 8.
Add 2000 μl of isotonic solution directly to 100 μl of cell suspension with 1M glycerol.
(1) Add 2000 μl of sucrose buffer medium

In data set [2] the test system is human sperm. As to the kind of experiment: Sperm membrane integrity (dual staining, flow cytometry) after glycerol addition and removal. It is filed as cell-based. The following applies: in 1M glycerol or after addition and removal of 1M glycerol by the different procedures. The source says:
One preferred procedure to assess cell viability utilizes dual flourescent staining and flow cytometric analysis as disclosed by Garner in Assessment of Spermatozoal Function Using Dual Fluorescent Staining and Flow Cytometric Analysis, Biol. Reprod. 34, 127-138, 1986, which is hereby incorporated into this specification by reference. Propidium iodide (PI) is a bright red, nucleic acid-specific fluorophore available from the Sigma Chemical Co. PI permeates poorly into sperm cells with intact plasma membranes, however, it readily diffuses into sperm having damaged membranes and stains the DNA red. […]
Plasma membrane integrity was analyzed by placing five μl of CFDA (suspended in 0.25 mg/ml of DMSO) and 5 μl of PI (suspended in 1 mg/ml H2 O) solutions into 0.5 ml of a particular sperm suspension. […] A total of 1×10^5 spermatozoa per treatment were analyzed using a FACSTAR PLUS™ flow cytometer.
TL-HEPES medium with 2M glycerol was either one-step or stepwise added to an equal volume of the isotonic sperm suspension to achieve a final 1M glycerol concentration at 22° C. […] Sperm motility before, during, and after the different glycerol addition and removal procedures was measured by CASA. The membrane integrity of the sperm was determined by the dual staining technique and flow cytometry.
(In general: A flow cytometer gives signals particle by particle.)

The test system of a further data set is human sperm cells. Briefly: Glycerol removal with porous-membrane diffusion device. It is filed as cell-based. The text has this: A cell suspension with cryoprotectants is placed in the chamber (region 2) with an internal space/thickness of L. Two walls of the chamber are the porous membranes (regions 1 and 3) with special characteristics (e.g. membrane thickness: 150 μm, pore size: 0.22 to 0.65 μm in diameter, pore area: 70% of the total membrane surface area). For removing CPAs, isotonic cell culture medium without CPAs are continuously pumped and run through compartments (4 and 5) to quickly remove CPAs diffusing from the chamber (region 2) through the porous membrane. Meanwhile, the isotonic medium diffuses into the chamber to dilute the CPA concentration in the cell suspension. Because the porous membrane used is a nonselective membrane (pore size […]), CPAs and other solutes and solvents (water) diffuse freely across the […] with a constant cell suspension volume in the chamber. The pore size of the porous membrane, the thickness of the cell chamber, the diffusibility of CPA in the solution, the permeability coefficients of the cell membrane to water and CPA are control factors used in the design of the system. Basic assumptions and mathematical formulation describing the CPA diffusion across the porous membrane and the change of CPA concentration distribution in the chamber (i.e., the extracellular environment) are as follows:
A corresponding computer program using a finite difference method to calculate the above equations is used to simulate the mass transfer process in the system. The values of f, L2, Cf, Ci, L1, D1, D2 and hD can be used as control factors or adjustable parameters in the computer simulation. […] Calculated kinetic changes of glycerol concentration (initial 1M) at the chamber position A (center, see FIG. 19) and B (internal surface of porous membrane, see FIG. 19) are shown in FIG. 21, and the corresponding cell volume changes are calculated and predicted to be below the cell tolerance limit (1.1 times isotonic sperm volume), as shown in FIG. 22.

SMILES strings stand for the structures. Bounds are passed on as bounds.

With `O` [Water, water], the “Water permeability coefficient (Lp)” value in the data set on human spermatozoa (not told) was 2.16 um/minutes/atm.
For the compound `OCC(O)CO` [glycerol], the “Glycerol permeability coefficient (PCPA)” value with human spermatozoa (22° C., human spermatozoa) is 18.3 ×10⁻⁶ cm/s. Also, the “sperm that maintained motility” value with human sperm [1] (eight-step FMS removal of 1M glycerol) is recorded as “over 92%”. Besides, the “sperm that lost motility” value with human sperm [1] (eight-step FVS removal of 1M glycerol) is given as “Thirty-five percent”. For the same compound, the sperm motility loss result is “less than 8%” in the data set with human sperm [1] (four-step FMS addition) and “approximately 20%” in the data set with human sperm [1] (one step addition). For the same compound, in the data set on human sperm [1] (one-step removal of 1M glycerol), the “motile sperm that kept motility” value is given as “Less than 30%”. Further, in the data set with human sperm [1] (two-step removal of 1M glycerol using sucrose as non-permeating buffer (600 mOsm)), the motility loss is listed as about 45%. Also, in the data set with human sperm [2], the “membrane integrity of the human sperm” value is “appeared to maintain membrane integrity under all experimental conditions”. In the data set on human sperm cells, the “time for removal of over 95% of 1M glycerol” value is at most 10 min. The “cell clumping, loss in motility or membrane integrity, or curling of sperm tails” value in the data set with human sperm cells (1M glycerol removal within 10 minutes) was “without significant cell clumping, loss in motility or membrane integrity, or curling of sperm tails”. Moreover, in the data set on human sperm cells (1M glycerol, within 10 minutes), the “glycerol removed from the human sperm cells” value is recorded as “over 95%”.
